Experiment: logP by reversed-phase HPLC (EEC Directive 79/831 Annex V.A8)
Format: physicochemical
Conditions: HPLC C18, 40° C., 0.1% aqueous formic acid / acetonitrile gradient
Experimental: Temperature: 40° C.; Mobile phases: 0.1% aqueous formic acid and acetonitrile; linear gradient from 10% acetonitrile to 90% acetonitrile.

First: CCCCCC(=O)Nc1nc(CON=C(c2ccc(-c3ccc(Cl)c(Cl)c3)o2)n2nnnc2C)cs1 [Compound 85]
Second: CCCCCC(=O)Nc1nc(CON=C(c2ccc(-c3ccccc3)o2)n2nnnc2C)cs1 [Compound 133]
The LogP of the first is higher: 4.78 for the first, 3.8 for the second.

Cc1nnnn1C(=NOCc1csc(N)n1)c1ccc(Br)s1 [Compound 86] and Cc1nnnn1C(=NOCc1csc(N)n1)c1ccc(Cl)s1 [Compound 100] are within 0.2 log units of each other in LogP: 2.07 for the first, 2.02 for the second.

Cc1nnnn1C(=NOCc1csc(NC(=O)C(C)(C)C)n1)c1ccc(Br)s1 [Compound 87] and Cc1nnnn1C(=NOCc1csc(NC(=O)C(C)(C)C)n1)c1ccc(Cl)s1 [Compound 102] are within 0.2 log units of each other in LogP: 3.74 for the first, 3.73 for the second.

First: Cc1nnnn1C(=NOCc1csc(NC(=O)CCCc2ccccc2)n1)c1ccc(Br)s1 [Compound 88]
Second: Cc1nnnn1C(=NOCc1csc(NC(=O)CCc2ccccc2)n1)c1ccc(Br)s1 [Compound 89]
The LogP of the first is higher: 4.04 for the first, 3.76 for the second.

Going from Cc1nnnn1C(=NOCc1csc(NC(=O)C2CCCC2)n1)c1ccc(Br)s1 [Compound 90] to Cc1nnnn1C(=NOCc1csc(NC(=O)C2CC2)n1)c1ccc(Br)s1 [Compound 96], the LogP falls from 3.66 to 3.04.

Cc1nnnn1C(=NOCc1csc(NC(=O)c2ccccc2)n1)c1ccc(Br)s1 [Compound 91] and Cc1nnnn1C(=NOCc1csc(NC(=O)Cc2ccccc2)n1)c1ccc(Br)s1 [Compound 93] are within 0.2 log units of each other in LogP: 3.61 for the first, 3.53 for the second.

First: CCCCCC(=O)Nc1nc(CON=C(c2ccc(Br)s2)n2nnnc2C)cs1 [Compound 92]
Second: CCCCCC(=O)Nc1nc(CON=C(c2ccc(Cl)s2)n2nnnc2C)cs1 [Compound 106]
The LogP of the first is lower: 3.92 for the first, 4.12 for the second.

Cc1nnnn1C(=NOCc1csc(NC(=O)C(C)C)n1)c1ccc(Br)s1 [Compound 94] and C=CCC(=O)Nc1nc(CON=C(c2ccc(Br)s2)n2nnnc2C)cs1 [Compound 97] are within 0.2 log units of each other in LogP: 3.22 for the first, 3.08 for the second.

Cc1nnnn1C(=NOCc1csc(NC(=O)COCc2ccccc2)n1)c1ccc(Br)s1 [Compound 95] and Cc1nnnn1C(=NOCc1csc(NC(=O)Cc2ccccc2)n1)c1ccc(Cl)s1 [Compound 103] are within 0.2 log units of each other in LogP: 3.76 for the first, 3.62 for the second.

COCCOCC(=O)Nc1nc(CON=C(c2ccc(Br)s2)n2nnnc2C)cs1 [Compound 98] and COCCOCC(=O)Nc1nc(CON=C(c2ccc(Cl)s2)n2nnnc2C)cs1 [Compound 111] are within 0.2 log units of each other in LogP: 2.94 for the first, 2.88 for the second.

COCCOC(=O)Nc1nc(CON=C(c2ccc(Br)s2)n2nnnc2C)cs1 [Compound 99] and COCCOC(=O)Nc1nc(CON=C(c2ccc(Cl)s2)n2nnnc2C)cs1 [Compound 112] are within 0.2 log units of each other in LogP: 3.1 for the first, 3.05 for the second.

Cc1nnnn1C(=NOCc1csc(NC(=O)C2CC2)n1)c1ccc(Cl)s1 [Compound 101] and Cc1ccc(C(=NOCc2csc(NC(=O)C3CC3)n2)n2nnnc2C)s1 [Compound 119] are within 0.2 log units of each other in LogP: 3 for the first, 2.84 for the second.

Going from Cc1nnnn1C(=NOCc1csc(NC(=O)NCCc2ccccc2)n1)c1ccc(Cl)s1 [Compound 104] to Cc1nnnn1C(=NOCc1csc(NC(=O)NCc2ccccc2)n1)c1ccc(Cl)s1 [Compound 105], the LogP falls from 3.64 to 3.32.

Going from Cc1nnnn1C(=NOCc1csc(NC(=O)CCCc2ccccc2)n1)c1ccc(Cl)s1 [Compound 107] to Cc1nnnn1C(=NOCc1csc(NC(=O)CCc2ccccc2)n1)c1ccc(Cl)s1 [Compound 108], the LogP falls from 4.12 to 3.85.

First: Cc1nnnn1C(=NOCc1csc(NC(=O)OCc2ccccc2)n1)c1ccc(Cl)s1 [Compound 109]
Second: Cc1nnnn1C(=NOCc1csc(NC(=O)OCCc2ccccc2)n1)c1ccc(Cl)s1 [Compound 110]
The LogP of the first is lower: 3.93 for the first, 4.24 for the second.

First: Cc1ccc(C(=NOCc2csc(N)n2)n2nnnc2C)s1 [Compound 113]
Second: Cc1ccc(C(=NOCc2cccc(N)n2)n2nnnc2C)s1 [Compound 124]
The LogP of the first is higher: 1.8 for the first, 1.51 for the second.

Compared with CCCC(=O)Nc1nc(CON=C(c2ccc(C)s2)n2nnnc2C)cs1 [Compound 114], CCCCCC(=O)Nc1nc(CON=C(c2ccc(C)s2)n2nnnc2C)cs1 [Compound 120] is higher in LogP: 2.88 for the first, 3.76 for the second.

First: Cc1ccc(C(=NOCc2csc(NC(=O)C(C)(C)C)n2)n2nnnc2C)s1 [Compound 115]
Second: COCCOC(=O)Nc1nc(CON=C(c2ccc(C)s2)n2nnnc2C)cs1 [Compound 130]
The LogP of the first is higher: 3.42 for the first, 2.76 for the second.

Cc1ccc(C(=NOCc2csc(NC(=O)Cc3ccccc3)n2)n2nnnc2C)s1 [Compound 116] and Cc1ccc(C(=NOCc2csc(NC(=O)CCc3ccccc3)n2)n2nnnc2C)s1 [Compound 122] are within 0.2 log units of each other in LogP: 3.35 for the first, 3.54 for the second.

Cc1ccc(C(=NOCc2csc(NC(=O)NCc3ccccc3)n2)n2nnnc2C)s1 [Compound 117] and Cc1ccc(C(=NOCc2csc(NC(=O)NCCc3ccccc3)n2)n2nnnc2C)s1 [Compound 118] are within 0.2 log units of each other in LogP: 3.17 for the first, 3.33 for the second.

Cc1ccc(C(=NOCc2csc(NC(=O)CCCc3ccccc3)n2)n2nnnc2C)s1 [Compound 121] and Cc1ccc(C(=NOCc2csc(NC(=O)OCCc3ccccc3)n2)n2nnnc2C)s1 [Compound 123] are within 0.2 log units of each other in LogP: 3.81 for the first, 3.88 for the second.

Compared with Cc1ccc(C(=NOCc2cccc(NC(=O)OCCc3ccccc3)n2)n2nnnc2C)s1 [Compound 125], Cc1ccc(C(=NOCc2cccc(NC(=O)NCCc3ccccc3)n2)n2nnnc2C)s1 [Compound 128] is lower in LogP: 4.02 for the first, 3.06 for the second.

Compared with CCCCCOC(=O)Nc1cccc(CON=C(c2ccc(C)s2)n2nnnc2C)n1 [Compound 126], CCCCCC(=O)Nc1cccc(CON=C(c2ccc(C)s2)n2nnnc2C)n1 [Compound 127] is lower in LogP: 4.34 for the first, 3.79 for the second.

Going from COCCOCC(=O)Nc1nc(CON=C(c2ccc(C)s2)n2nnnc2C)cs1 [Compound 129] to Cc1nnnn1C(=NOCc1csc(NC(=O)CCCCl)n1)c1ccc(-c2ccccc2)o1 [Compound 136], the LogP rises from 2.6 to 3.39.

Compared with Cc1nnnn1C(=NOCc1csc(N)n1)c1ccc(-c2ccccc2)o1 [Compound 131], Cc1nnnn1C(=NOCc1csc(NC(=O)C(C)C)n1)c1ccc(-c2ccccc2)o1 [Compound 134] is higher in LogP: 2.13 for the first, 3.27 for the second.

Compared with CCCCCCCCC(=O)Nc1nc(CON=C(c2ccc(-c3ccccc3)o2)n2nnnc2C)cs1 [Compound 135], CCCCCC(=O)Nc1nc(CON=C(c2csc(-c3ccccc3)n2)c2nnnn2C)cs1 [Compound 171] is lower in LogP: 5.01 for the first, 3.94 for the second.

Compared with Cn1nnnc1C(=NOCc1csc(NC(=O)OCCc2ccccc2)n1)c1csc(-c2ccccc2)n1 [Compound 166], Cn1nnnc1C(=NOCc1csc(NC(=O)Cc2ccccc2)n1)c1csc(-c2ccccc2)n1 [Compound 172] is lower in LogP: 4.06 for the first, 3.58 for the second.

Compared with CCCCCOC(=O)Nc1nc(CON=C(c2csc(-c3ccccc3)n2)c2nnnn2C)cs1 [Compound 167], Cn1nnnc1C(=NOCc1csc(NC(=O)C(C)(C)C)n1)c1csc(-c2ccccc2)n1 [Compound 170] is lower in LogP: 4.29 for the first, 3.62 for the second.

First: Cn1nnnc1C(=NOCc1csc(NC(=O)C2CC2)n1)c1csc(-c2ccccc2)n1 [Compound 168]
Second: Cn1nnnc1C(=NOCc1csc(NC(=O)c2ccccc2)n1)c1csc(-c2ccccc2)n1 [Compound 169]
The LogP of the first is higher: 3.85 for the first, 3.62 for the second.

Source: US8119645B2, “Fungicide hydroximoyl-tetrazole derivatives” (Bayer Cropscience AG, priority 2006, dated 2012)
